Results: ChEMBL document CHEMBL5150068, “Structure-Based Design of Tropane Derivatives as a Novel Series of CCR5 Antagonists with Broad-Spectrum Anti-HIV-1 Activities and Improved Oral Bioavailability” (J Med Chem, 2022)

Key:
Type in all cases: functional, organism-based
[1] = test system: Human immunodeficiency virus 1; assay: Antiviral activity against HIV-1 Ba-L infected in human PM1 cells measured after 48 hrs incubation by ELISA based p24 antigen assay; conditions: Human immunodeficiency virus 1, Ba-L, PM1, 48 h
[2] = test system: Human immunodeficiency virus 1; assay: Antiviral activity against HIV-1 KIZ006 clinical isolate infected in human PBMC measured after 48 hrs incubation by luciferase based analysis; conditions: Human immunodeficiency virus 1, KIZ006, PBMC
[3] = test system: Human immunodeficiency virus 1; assay: Antiviral activity against HIV-1 IIIB infected in human TZM-bl cells measured after 48 hrs incubation by luciferase based analysis; conditions: Human immunodeficiency virus 1, IIIB
[4] = test system: Human immunodeficiency virus 1; assay: Antiviral activity against HIV-1 KM018 clinical isolate infected in human PBMC measured after 48 hrs incubation by luciferase based analysis; conditions: Human immunodeficiency virus 1, KM018, PBMC
[5] = test system: Human immunodeficiency virus 1; assay: Antiviral activity against HIV-1 YU-2 (G140S/Q148H) infected in human TZM-bl cells measured after 48 hrs incubation by luciferase based analysis; conditions: Human immunodeficiency virus 1, YU-2 (G140S/Q148H)
[6] = test system: Human immunodeficiency virus 1; assay: Antiviral activity against HIV-1 YU-2 infected in human TZM-bl cells measured after 48 hrs incubation by luciferase based analysis; conditions: Human immunodeficiency virus 1, YU-2, TZM-bl, 48 h
[7] = test system: Human immunodeficiency virus 1; assay: Antiviral activity against HIV-1 Ba-L infected in human TZM-bl cells measured after 48 hrs incubation by luciferase based analysis; conditions: Human immunodeficiency virus 1, Ba-L
[8] = test system: Human immunodeficiency virus 1; assay: Antiviral activity against HIV-1 SF162 infected in human TZM-bl cells measured after 48 hrs incubation by luciferase based analysis; conditions: Human immunodeficiency virus 1, SF162, TZM-bl
[9] = test system: Human immunodeficiency virus 1; assay: Antiviral activity against HIV-1 Ba-L infected in human HOS-CD4-CCR5 cells measured after 48 hrs incubation by ELISA based p24 antigen assay; conditions: Human immunodeficiency virus 1, Ba-L
[10] = test system: Human immunodeficiency virus 1; assay: Antiviral activity against HIV-1 KIZ001 clinical isolate infected in human PBMC measured after 48 hrs incubation by luciferase based analysis; conditions: Human immunodeficiency virus 1, KIZ001, PBMC

**Q.** How did the EC50 [1] turn out when `Cc1nnc(C(C)C)n1[C@H]1C[C@H]2CC[C@@H](C1)N2CC[C@H](NC(=O)C1CCC(F)(F)CC1)c1ccccc1` [MARAVIROC] was run?
**A.** 0.34 nM

**Q.** And the EC50 [2]?
**A.** 92 nM

**Q.** What about the EC50 [3] of the same compound?
**A.** > 1000 nM

**Q.** What about the EC50 [4] of the same compound?
**A.** 10.2 nM

**Q.** What about the EC50 [5] of the same compound?
**A.** 2.18 nM

**Q.** And the EC50 [6]?
**A.** 2.96 nM

**Q.** And the EC50 [7]?
**A.** 15 nM

**Q.** What about the EC50 [8] of the same compound?
**A.** 19.2 nM

**Q.** And the EC50 [9]?
**A.** 1.04 nM

**Q.** And the EC50 [10]?
**A.** 14.9 nM
